Among the data in PubChem BioAssay (NCI) are GI50 and TGI values, retold here.

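Five concentrations, 48 hours, 96-well plates. Abbreviation: GI50, concentration required for 50% inhibition of growth. TGI denotes the concentration required for complete inhibition of growth.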

Common to all, as to experiment: growth of human tumour cells (NCI), 48 h
The subject of test [1] is BT-549 breast.
Test [2] has as its system CAKI-1 renal.
Test [3] deals with COLO 205 colon.
For test [4], the system named is HOP-62 NSCLC.
Test [5] has as its system KM12 colon.
In test [6] the test system is MCF7 breast.
Test [7] concerns MOLT-4 leukemia.
In test [8] the test system is SK-OV-3 ovarian.
In test [9] the test system is T-47D breast.
Test [10] concerns UO-31 renal.

As to `COc1ccc(C2C3=C(NC(=O)C2C#N)c2ccc4ccccc4c2OCC3)cc1` (stereo not given), the GI50 in test [1] is 20.4 µM; in test [2] it was 33.8 µM; in test [3], greater than 100 µM; in [4] it was 28.2 µM; in [5], greater than 100 µM; in test [6], greater than 100 µM. For the same compound, the GI50 was greater than 100 µM in [7], 20 µM in [8], greater than 100 µM in test [9] and 64.1 µM in [10]. Further, the TGI is 60.6 µM in test [1]; 70.3 µM in test [2]; greater than 100 µM in [3]; 86.3 µM in [4]; greater than 100 µM in [5]; greater than 100 µM in test [6]. The TGI was greater than 100 µM in test [7], 47.1 µM in test [8], greater than 100 µM in test [9] and greater than 100 µM in [10].

Take `Cc1nc2sc(C(=O)Nc3cccc4ccccc34)c(N)c2cc1C(C)O` (stereo not given): the GI50 is 0.264 µM in [1]; 0.192 µM in [2]; 0.234 µM in [3]; 0.244 µM in test [4]; 0.199 µM in [5]; 0.17 µM in [6]. Moreover, the GI50 in test [7] was 0.227 µM; in [8] it was 0.196 µM; in test [9] it was 0.183 µM; in [10] it was 0.268 µM. The TGI is greater than 13.8 µM in test [1]; greater than 50 µM in test [2]; 7.64 µM in test [3]; greater than 50 µM in test [4]; greater than 50 µM in [5]; greater than 50 µM in test [6]. Also, the TGI in test [7] is greater than 50 µM; in test [8] it was greater than 50 µM; in [9], greater than 50 µM; in test [10], greater than 48.3 µM.

As to `COc1ccc2c(c1)O/C(=C\c1cccc(OCC(=O)Nc3nc4ccccc4s3)c1)C2=O`, the GI50 in [1] was 26 µM; in test [2], 3.04 µM; in [3], greater than 100 µM; in test [4] it was 41.1 µM; in [5], 9.61 µM; in [6], 14.2 µM. For the same compound, the GI50 in test [7] is 3.33 µM; in [8], greater than 100 µM; in [9], 9.66 µM; in test [10] it was 1.53 µM. Besides, the TGI in test [1] was 97.6 µM; in test [2], greater than 100 µM; in test [3], greater than 100 µM; in test [4] it was greater than 100 µM; in [5], greater than 100 µM; in test [6], greater than 100 µM. Also, the TGI in test [7] was 20.2 µM; in test [8] it was greater than 100 µM; in test [9] it was greater than 100 µM; in test [10] it was 3 µM.

As to `Cc1cc(N(CCCl)CCCl)ccc1C=Nc1cccnc1`, the GI50 in [1] was 12.8 µM; in [2] it was 2.46 µM; in [3], 15.1 µM; in test [4], 10.5 µM; in test [5] it was 42.6 µM; in [6] it was 1.8 µM. In addition, the GI50 in [7] is 2.05 µM; in [8], 7.57 µM; in test [9], 1.6 µM; in [10], 12.4 µM. The TGI is 53.9 µM in test [1]; greater than 43.1 µM in test [2]; greater than 70.8 µM in test [3]; greater than 100 µM in test [4]; greater than 100 µM in [5]; greater than 100 µM in test [6]. Also, the TGI in test [7] is greater than 80.9 µM; in test [8], greater than 59.3 µM; in [9] it was greater than 73.2 µM; in test [10], greater than 86.7 µM.

Regarding `Nc1ccccc1C#C/C=C\C#Cc1ccc(F)cc1F`, the GI50 in test [1] was 12.1 µM; in test [2], 3.13 µM; in test [3], 29.5 µM; in [4] it was 16 µM; in test [5] it was 4.17 µM; in test [6], 6.28 µM. Besides, the GI50 in test [7] was 3.05 µM; in test [8], 27.4 µM; in test [9], 26 µM; in [10], 13.1 µM. Also, the TGI in test [1] amounted to 27.5 µM; in [2] it was 14.7 µM; in test [3] it was 82 µM; in test [4], 30 µM; in [5], 19.6 µM; in test [6], 38.5 µM. For the same compound, the TGI is greater than 100 µM in test [7], 66.7 µM in test [8], greater than 100 µM in test [9] and 33 µM in test [10].

For `O=C(NNc1nc2cc(F)ccc2n2c(CN3CCOCC3)ccc12)c1ccccc1`, the GI50 in test [1] is 0.559 µM; in [2], 0.223 µM; in test [3], 0.261 µM; in test [4], 0.117 µM; in test [5] it was 0.369 µM; in test [6], 0.219 µM. For the same compound, the GI50 in [7] is 0.175 µM; in [8], 0.405 µM; in [9] it was 0.36 µM; in test [10], 0.0574 µM. The TGI turned out to be 6.57 µM in test [1]; 1.5 µM in test [2]; 1.56 µM in test [3]; 4.03 µM in test [4]; 2.45 µM in test [5]; 1.31 µM in test [6]. The TGI in test [7] was found to be 2.18 µM; in test [8], 3.39 µM; in test [9] it was 2.24 µM; in test [10], 1.3 µM.

Take `COc1ccc(-c2nc(-c3nc4ccc(F)cc4[nH]3)cc3c2[nH]c2ccccc23)cc1`: the GI50 in test [1] was 3.18 µM; in test [2] it was 3.87 µM; in [3], 2.1 µM; in test [4], 3.22 µM; in [5], 2.78 µM; in test [6], 2.53 µM. In addition, the GI50 is 1.56 µM in [7], 4 µM in test [8], 2.56 µM in [9] and 2.54 µM in test [10]. For the same compound, the TGI was 9.72 µM in test [1]; greater than 100 µM in test [2]; 4.71 µM in [3]; 74.7 µM in test [4]; 12.2 µM in test [5]; greater than 100 µM in [6]. For the same compound, the TGI in [7] was 6.14 µM; in test [8], greater than 100 µM; in test [9], greater than 100 µM; in [10], 8.74 µM.
